From ChEMBL document CHEMBL1201862, “PubChem BioAssay data set” (2004)
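Compound exposure: 48 hours, 5 concentrations, 96-well plates. Abbreviation: GI50, concentration required for 50% inhibition of growth.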 The source made the active and inactive calls. Rule as the data show it: active = GI50 up to about 1.1 µM and inactive = higher.

Columns and labels:
Experiment in all cases: growth of human tumour cells (NCI), 48 h
A498 = tested on: A498
DU-145 = tested on: DU-145
HCT-15 = tested on: HCT-15
HL-60 = tested on: HL-60
K562 = tested on: K562
KM12 = tested on: KM12
MCF7 = tested on: MCF7
MDA-MB-231 = tested on: MDA-MB-231
MDA-N = tested on: MDA-N
NCI/ADR-RES = tested on: NCI/ADR-RES
OVCAR-3 = tested on: OVCAR-3
OVCAR-8 = tested on: OVCAR-8
RPMI-8226 = tested on: RPMI-8226
SF-268 = tested on: SF-268
SK-MEL-5 = tested on: SK-MEL-5
SN12C = tested on: SN12C
U-251 = tested on: U-251
UO-31 = tested on: UO-31
Malme-3M = tested on: Malme-3M
SK-OV-3 = tested on: SK-OV-3

| Compound | GI50 (A498) | GI50 (DU-145) | GI50 (HCT-15) | GI50 (HL-60) | GI50 (K562) | GI50 (KM12) | GI50 (MCF7) | GI50 (MDA-MB-231) | GI50 (MDA-N) | GI50 (NCI/ADR-RES) | GI50 (OVCAR-3) | GI50 (OVCAR-8) | GI50 (RPMI-8226) | GI50 (SF-268) | GI50 (SK-MEL-5) | GI50 (SN12C) | GI50 (U-251) | GI50 (UO-31) | GI50 (Malme-3M) | GI50 (SK-OV-3) |
| --- | --- | --- | --- | --- | --- | --- | --- | --- | --- | --- | --- | --- | --- | --- | --- | --- | --- | --- | --- | --- |
| NNc1nncc2[nH]cnc12 | > 100 µM (inactive) | > 100 µM (inactive) | > 100 µM | 35.8 µM (inactive) | > 100 µM (inactive) | > 100 µM (inactive) | > 100 µM (inactive) | > 100 µM (inactive) | > 100 µM (inactive) | > 100 µM (inactive) | > 100 µM (inactive) | > 100 µM (inactive) | > 100 µM (inactive) | > 100 µM (inactive) | > 100 µM (inactive) | > 100 µM (inactive) | > 100 µM (inactive) | > 100 µM (inactive) |  |  |
| C[C@@H]1CC[C@@H]2[C@@H](C1)O[C@@H]([C@H](C)OCc1ccccc1)SC2(C)C | 19.7 µM (inactive) | 37.3 µM (inactive) | 27.8 µM |  | 19.6 µM (inactive) | 18.5 µM (inactive) | 16.9 µM (inactive) | 19.7 µM (inactive) | 23.7 µM (inactive) | 25.5 µM (inactive) |  | 31.5 µM (inactive) | 17.4 µM (inactive) | 32.3 µM (inactive) | 18.1 µM (inactive) | 18.7 µM (inactive) | 17.9 µM (inactive) | 14.5 µM (inactive) | 22.6 µM (inactive) | 30.5 µM (inactive) |
| Fc1ccccc1-c1cc(S)c2cc3c(cc2n1)OCO3 | 10.4 µM (inactive) | 13 µM (inactive) | 5.65 µM |  | 13.1 µM (inactive) | 4.91 µM (inactive) | 4.88 µM (inactive) | > 56.1 µM (inactive) | 3.03 µM (inactive) | 4.26 µM (inactive) | 10.9 µM (inactive) | 17.8 µM (inactive) |  | > 44.8 µM (inactive) | 3.63 µM (inactive) | 34.2 µM (inactive) | 4.33 µM (inactive) | 27.5 µM (inactive) | 11.7 µM (inactive) | 16.1 µM (inactive) |
| CN(Cc1ccccc1)C(=S)S [SODIUM BENZYL(METHYL)CARBAMODITHIOATE] | > 100 µM (inactive) | 53.5 µM (inactive) | 34 µM | 26.4 µM (inactive) | 34.1 µM (inactive) | 56.1 µM (inactive) | 45.5 µM (inactive) | 88.5 µM (inactive) | 70.6 µM (inactive) | 38.1 µM (inactive) | 32 µM (inactive) | 33 µM (inactive) |  | 53.3 µM (inactive) | 48.3 µM (inactive) | 52.4 µM (inactive) | 38 µM (inactive) | 27.2 µM (inactive) | 38.7 µM (inactive) | > 100 µM (inactive) |
| O=C1NC(=S)NC(=O)C1C(c1ccc(O)cc1)C1C(=O)NC(=S)NC1=O.c1ccncc1 | > 100 µM (inactive) | > 100 µM (inactive) | > 100 µM | > 100 µM (inactive) | > 100 µM (inactive) | > 100 µM (inactive) | > 100 µM (inactive) | > 100 µM (inactive) | > 100 µM (inactive) | > 100 µM (inactive) | > 100 µM (inactive) | > 100 µM (inactive) | > 100 µM (inactive) |  | > 100 µM (inactive) | > 100 µM (inactive) | > 100 µM (inactive) | > 100 µM (inactive) | > 100 µM (inactive) |  |
| CCOC(=O)C1C(c2ccc3c(c2)OCO3)c2c(n[nH]c2O)CC1(C)O (stereo unspecified) | > 100 µM (inactive) | > 100 µM (inactive) | > 100 µM | > 100 µM (inactive) |  | > 100 µM (inactive) | > 100 µM (inactive) | > 100 µM (inactive) | > 100 µM (inactive) | > 100 µM (inactive) | > 100 µM (inactive) | > 100 µM (inactive) | > 100 µM (inactive) | > 100 µM (inactive) | > 100 µM (inactive) | > 100 µM (inactive) | > 100 µM (inactive) | > 100 µM (inactive) | 56.1 µM (inactive) |  |
| COC(=O)c1c([N+](=O)[O-])ncn1[C@H]1OC[C@@H](OC(C)=O)[C@@H](OC(C)=O)[C@@H]1OC(C)=O | > 100 µM (inactive) | > 100 µM (inactive) | > 100 µM | > 100 µM (inactive) | > 100 µM (inactive) | > 100 µM (inactive) | > 100 µM (inactive) | > 100 µM (inactive) | > 100 µM (inactive) | > 100 µM (inactive) | > 100 µM (inactive) | > 100 µM (inactive) |  | > 100 µM (inactive) |  | > 100 µM (inactive) | > 100 µM (inactive) | > 100 µM (inactive) | > 100 µM (inactive) | > 100 µM (inactive) |
| CC(=O)O[C@H]1CC(C)(C)C(=C=C/C(C)=C/C=C/C=C/C=C(C)/C=C2C=C(/C=C/[C@@]34O[C@]3(C)C[C@@H](O)CC4(C)C)C(=O)O/2)[C@](C)(O)C1 | 24.7 µM (inactive) | 33.2 µM (inactive) | 11 µM | 1.78 µM (inactive) | 10 µM (inactive) | 5.4 µM (inactive) | 3.81 µM (inactive) | 31.1 µM (inactive) | 12.7 µM (inactive) | 5.93 µM (inactive) | 10.1 µM (inactive) | 3.76 µM (inactive) | 4.38 µM (inactive) | 15 µM (inactive) | 8.43 µM (inactive) | 11.7 µM (inactive) | 10.7 µM (inactive) | 15.8 µM (inactive) | 16.7 µM (inactive) |  |
| CC1(C)N=C2C(=O)c3c([nH]c4ccccc34)[C@]3(C)CCC1CC23 (stereo partly specified) | > 6.25 µM (inactive) | > 6.25 µM (inactive) | > 6.25 µM | > 6.25 µM (inactive) | > 6.25 µM (inactive) | > 6.25 µM (inactive) | > 6.25 µM (inactive) | > 6.25 µM (inactive) | > 6.25 µM (inactive) | > 6.25 µM (inactive) | > 6.25 µM (inactive) | > 6.25 µM (inactive) | > 6.25 µM (inactive) | > 6.25 µM (inactive) | > 6.25 µM (inactive) | > 6.25 µM (inactive) | > 6.25 µM (inactive) | > 6.25 µM (inactive) | > 6.25 µM (inactive) |  |
| COC(=O)c1cc(O)c(O)c(O)c1-c1c(O)c(O)c(O)c(SC[C@H](NC(=O)OCc2ccccc2)C(=O)OCc2ccccc2)c1C(=O)OC | 31.5 µM (inactive) | 39.2 µM (inactive) | 27.5 µM | 15.1 µM (inactive) | 19.6 µM (inactive) | 31.9 µM (inactive) | 18 µM (inactive) | 16.7 µM (inactive) | 19.8 µM (inactive) | 35 µM (inactive) | 34 µM (inactive) | 21.2 µM (inactive) | 21.8 µM (inactive) | 25.9 µM (inactive) |  | 19.4 µM (inactive) | 16.4 µM (inactive) |  | 78.5 µM (inactive) | 41.9 µM (inactive) |
| Cn1c2ccccc2c2c3c(=O)[nH][nH]c(=O)c3c3c4ccccc4n(C)c3c21 | > 100 µM (inactive) | > 100 µM (inactive) | 99.1 µM |  | 58.5 µM (inactive) | 30.1 µM (inactive) | 0.133 µM (active) | > 100 µM (inactive) | > 100 µM (inactive) | > 58.2 µM (inactive) | > 100 µM (inactive) | > 100 µM (inactive) | 13.6 µM (inactive) | > 100 µM (inactive) | > 100 µM (inactive) | > 100 µM (inactive) | > 100 µM (inactive) | > 100 µM (inactive) | > 100 µM (inactive) | > 100 µM (inactive) |
| Cn1c(=O)c2c(nc3n(CC(O)CCl)c(=O)ccn23)n(C)c1=O (stereo unspecified) | 54.5 µM (inactive) | 28.8 µM (inactive) | 34.9 µM | 15.5 µM (inactive) | 39.2 µM (inactive) | 19.9 µM (inactive) | 40.4 µM (inactive) | 31.3 µM (inactive) | 35.2 µM (inactive) | 19.3 µM (inactive) | 77.1 µM (inactive) | 18.7 µM (inactive) | 19.5 µM (inactive) | 20.5 µM (inactive) | 62.5 µM (inactive) | 18.3 µM (inactive) | 44 µM (inactive) | 37.5 µM (inactive) |  | 45.1 µM (inactive) |
| C=C(C)[C@@]1(O)CCC[C@H]1NC(=O)OC(C)(C)C | > 100 µM (inactive) | > 100 µM (inactive) | > 100 µM |  |  | > 100 µM (inactive) | > 100 µM (inactive) | > 100 µM (inactive) | > 100 µM (inactive) | > 100 µM (inactive) | > 100 µM (inactive) | > 100 µM (inactive) |  | > 100 µM (inactive) | > 100 µM (inactive) | > 100 µM (inactive) | > 100 µM (inactive) | > 100 µM (inactive) | > 100 µM (inactive) | > 100 µM (inactive) |
| O=C(CSc1nnc(SCC(=O)NN=C2CCCCC2)s1)NN=C1CCCCC1 | > 100 µM (inactive) | > 100 µM (inactive) | > 100 µM |  | > 100 µM (inactive) | > 100 µM (inactive) | > 100 µM (inactive) | > 100 µM (inactive) | > 100 µM (inactive) | > 100 µM (inactive) | > 100 µM (inactive) | > 100 µM (inactive) | > 100 µM (inactive) | > 100 µM (inactive) | > 100 µM (inactive) | > 100 µM (inactive) | > 100 µM (inactive) | > 100 µM (inactive) | > 100 µM (inactive) | > 100 µM (inactive) |
| C=C(c1ccccc1)c1ccccc1-c1cc(-c2ccccc2)cc(-c2ccccc2)n1 | > 100 µM (inactive) | > 100 µM (inactive) | > 100 µM | 34.5 µM (inactive) | 53.6 µM (inactive) | > 100 µM (inactive) | > 100 µM (inactive) | > 100 µM (inactive) | > 100 µM (inactive) | > 100 µM (inactive) | 76.6 µM (inactive) | > 100 µM (inactive) | 58.1 µM (inactive) | > 100 µM (inactive) | 78.3 µM (inactive) | > 100 µM (inactive) | > 100 µM (inactive) | > 100 µM (inactive) | > 100 µM (inactive) |  |
